Measured values published in paper PMC4503722, “Novel Phenotypic Outcomes Identified for a Public Collection of Approved Drugs from a Publicly Accessible Panel of Assays” (PLoS ONE, 2015).
Where two headings read alike, the source gives them in different places.

Assays:
INS-1E cells = test: cells; format: cell-based, rat; conditions: 5 mM glucose; for 5mMGluc_INS1E SecretionMod IC50/EC50: assay number 8;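 for all read-outs here: secreted insulin quantified by homogeneous immunoassay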
SW480 = test: cells; format: cell-based
DLD-1 = test: cells; format: cell-based
HCT116 = test: cells; format: cell-based
SNU-C1 = test: cells; format: cell-based
Colo320 = test: cells; format: cell-based
RKO = test: cells; format: cell-based
HeLa cells = test: cells; format: cell-based;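 for Hela CellCycMod PI 4N summarized IC50: value tracks stimulation of 4N DNA content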
HT-29 = test: cells; format: cell-based
[1] = tested on: endothelial tube formation in co-cultures of ECFCs and ADSCs treated with VEGF; test: cells; format: cell-based, human
[2] = tested on: ECFC/ADSC co-culture cell nuclei number
[3] = tested on: HCT116 cells treated with a GSK3β inhibitor; test: cells; format: cell-based
[4] = assay number 26, GSK3b inhibitor pretreated

CN(C)CC/C=C1\c2ccccc2Sc2ccc(Cl)cc21 [NCGC00013683-06]
5mMGluc_INS1E SecretionMod IC50/EC50 (INS-1E cells): > 33.33 µM

CN(C)CC[C@H](c1ccc(Cl)cc1)c1ccccn1 [NCGC00015227-08]
5mMGluc_INS1E SecretionMod IC50/EC50 (INS-1E cells): 17.749 µM

COc1ccc(Cl)cc1C(=O)NCCc1ccc(S(=O)(=O)NC(=O)NC2CCCCC2)cc1 [NCGC00015467-20]
IC50/EC50, 5mMGluc_INS1E SecretionMod (assay number 8) (INS-1E cells): 0.00808 µM

CN1CCN2c3ccccc3Cc3ccccc3C2C1 (centres unmarked) [NCGC00015656-12]
5mMGluc_INS1E SecretionMod IC50/EC50 (INS-1E cells): > 11.11 µM

N=c1nc(N2CCCCC2)cc(N)n1O [NCGC00015673-13]
IC50/EC50, 5mMGluc_INS1E SecretionMod (assay number 8) (INS-1E cells): > 33.33 µM

CC(C)=CCOc1ccc(/C=C/C(=O)c2ccc(OCC=C(C)C)cc2OCC(=O)O)cc1 [NCGC00159481-03]
Basal_Viability ATP SW480 IC50/EC50 (SW480): 2.9193 µM
Basal_Viability ATP DLD-1 IC50/EC50 (DLD-1): 5.3614 µM
Basal_Viability ATP HCT116 IC50/EC50 (HCT116): > 6.667 µM
Basal_Viability ATP SNU-C1 IC50/EC50 (SNU-C1): 7.4428 µM
Basal_Viability ATP Colo 320 IC50/EC50 (Colo320): 1.5527 µM
Basal_Viability ATP RKO IC50/EC50 (RKO): 5.5335 µM
Hela CellCycMod PI 2N IC50/EC50 (HeLa cells): > 10 µM
Hela CellCycMod PI 4N IC50/EC50 (HeLa cells): > 10 µM
Hela CellCycMod PI Cell Number IC50/EC50 (HeLa cells): > 10 µM
Hela CellCycMod PI MI IC50/EC50 (HeLa cells): > 10 µM
Hela CellCycMod PI S Phase IC50/EC50 (HeLa cells): > 10 µM
Basal_Viability ATP HT-29 IC50/EC50 (HT-29): 5.3973 µM
VEGF_ADSC\ECFC Angio CD31 TubeArea IC50/EC50 [1]: > 10 µM
VEGF_ADSC\ECFC Angio Hoechst NucArea IC50/EC50 [2]: > 10 µM
GSK3b inh pretreated_Viability ATP HCT116 IC50/EC50 [3]: 3.0351 µM

CCc1oc2ccccc2c1C(=O)c1cc(I)c(O)c(I)c1 [NCGC00160408-03]
Basal_Viability ATP SW480 IC50/EC50 (SW480): 0.001 µM
Basal_Viability ATP DLD-1 IC50/EC50 (DLD-1): 0.003 µM
Basal_Viability ATP HCT116 IC50/EC50 (HCT116): 0.003 µM
Basal_Viability ATP SNU-C1 IC50/EC50 (SNU-C1): 0.001 µM
Basal_Viability ATP Colo 320 IC50/EC50 (Colo320): 0.003 µM
Basal_Viability ATP RKO IC50/EC50 (RKO): 0.003 µM
Hela CellCycMod PI 2N IC50/EC50 (HeLa cells): > 10 µM
Hela CellCycMod PI 4N IC50/EC50 (HeLa cells): > 10 µM
Hela CellCycMod PI Cell Number IC50/EC50 (HeLa cells): > 10 µM
Hela CellCycMod PI MI IC50/EC50 (HeLa cells): > 10 µM
Hela CellCycMod PI S Phase IC50/EC50 (HeLa cells): > 10 µM
Basal_Viability ATP HT-29 IC50/EC50 (HT-29): 0.001 µM
VEGF_ADSC\ECFC Angio CD31 TubeArea IC50/EC50 [1]: 5.8547 µM
VEGF_ADSC\ECFC Angio Hoechst NucArea IC50/EC50 [2]: > 10 µM
GSK3b inh pretreated_Viability ATP HCT116 IC50/EC50 [3]: 0.001 µM

O=C1C(I)=CC(=C(c2cc(I)c(O)c(I)c2)c2ccccc2C(=O)O)C=C1I [NCGC00161636-02]
IC50 (SW480; read-out: Basal_Viability ATP SW480 summarized IC50): 0.112 µM
IC50 (DLD-1; read-out: Basal_Viability ATP DLD-1 summarized IC50): 0.0132 µM
IC50 (HCT116; read-out: Basal_Viability ATP HCT116 summarized IC50): 0.384 µM
IC50 (SNU-C1; read-out: Basal_Viability ATP SNU-C1 summarized IC50): 3.76 µM
IC50 (Colo320; read-out: Basal_Viability ATP Colo 320 summarized IC50): 0.312 µM
IC50 (RKO; read-out: Basal_Viability ATP RKO summarized IC50): 0.0373 µM
IC50 (HeLa cells; read-out: Hela CellCycMod PI 2N summarized IC50): > 10 µM
IC50 (HeLa cells; read-out: Hela CellCycMod PI 4N summarized IC50): > 10 µM
IC50 (HeLa cells; read-out: Hela CellCycMod PI Cell Number summarized IC50): > 10 µM
IC50 (HeLa cells; read-out: Hela CellCycMod PI MI summarized IC50): > 10 µM
IC50 (HeLa cells; read-out: Hela CellCycMod PI S Phase summarized IC50): > 10 µM
IC50 (HT-29; read-out: Basal_Viability ATP HT-29 summarized IC50): 5.73 µM
IC50 ([1]; read-out: VEGF_ADSC\ECFC Angio CD31 TubeArea summarized IC50): > 10 µM
IC50 ([2]; read-out: VEGF_ADSC\ECFC Angio Hoechst NucArea summarized IC50): > 10 µM
IC50 ([3]; read-out: GSK3b inh pretreated_Viability ATP HCT116 summarized IC50): 0.054 µM

CO[C@@]12[C@H](COC(N)=O)C3=C(C(=O)C(C)=C(N)C3=O)N1C[C@@H]1N[C@@H]12 [NCGC00163468-05]
Basal_Viability ATP SW480 IC50/EC50 (SW480): 12.0548 µM
Basal_Viability ATP DLD-1 IC50/EC50 (DLD-1): 5.6318 µM
Basal_Viability ATP HCT116 IC50/EC50 (HCT116): 13.6261 µM
Basal_Viability ATP SNU-C1 IC50/EC50 (SNU-C1): 8.1272 µM
Basal_Viability ATP Colo 320 IC50/EC50 (Colo320): 12.5546 µM
Basal_Viability ATP RKO IC50/EC50 (RKO): 0.9953 µM
Hela CellCycMod PI 2N IC50/EC50 (HeLa cells): 0.0133 µM
Hela CellCycMod PI 4N IC50/EC50 (HeLa cells): > 10 µM
Hela CellCycMod PI Cell Number IC50/EC50 (HeLa cells): 0.07733 µM
Hela CellCycMod PI MI IC50/EC50 (HeLa cells): > 10 µM
Hela CellCycMod PI S Phase IC50/EC50 (HeLa cells): 0.1428 µM
Basal_Viability ATP HT-29 IC50/EC50 (HT-29): 2.5705 µM
VEGF_ADSC\ECFC Angio CD31 TubeArea IC50/EC50 [1]: 0.1019 µM
VEGF_ADSC\ECFC Angio Hoechst NucArea IC50/EC50 [2]: 5.961 µM
GSK3b inh pretreated_Viability ATP HCT116 IC50/EC50 [3]: > 20 µM

CCCCC(CC)CN=C(N)NC(N)=NCCCCCCN=C(N)NC(N)=NCC(CC)CCCC (centres unmarked) [NCGC00178352-06]
IC50/EC50, Basal_Viability ATP SW480 (assay number 24) (SW480): 0.3327 µM
IC50/EC50, Basal_Viability ATP DLD-1 (assay number 23) (DLD-1): 0.0197 µM
IC50/EC50, Basal_Viability ATP HCT116 (assay number 25) (HCT116): 0.7096 µM
IC50/EC50, Basal_Viability ATP SNU-C1 (assay number 30) (SNU-C1): 0.0941 µM
IC50/EC50, Basal_Viability ATP Colo 320 (assay number 27) (Colo320): 0.0041 µM
IC50/EC50, Basal_Viability ATP RKO (assay number 29) (RKO): 0.2228 µM
IC50/EC50, Hela CellCycMod PI 2N (assay number 14) (HeLa cells): > 10 µM
IC50/EC50, Hela CellCycMod PI 4N (assay number 16) (HeLa cells): > 10 µM
IC50/EC50, Hela CellCycMod PI Cell Number (assay number 18) (HeLa cells): 0.0186 µM
IC50/EC50, Hela CellCycMod PI MI (assay number 17) (HeLa cells): > 10 µM
IC50/EC50, Hela CellCycMod PI S Phase (assay number 15) (HeLa cells): > 10 µM
IC50/EC50, Basal_Viability ATP HT-29 (assay number 28) (HT-29): 0.0302 µM
IC50/EC50, VEGF_ADSC\ECFC Angio CD31 TubeArea (assay number 2) [1]: 0.4078 µM
IC50/EC50, VEGF_ADSC\ECFC Angio Hoechst NucArea (assay number 3) [2]: > 10 µM
IC50/EC50, GSK3b inh pretreated_Viability ATP HCT116 (assay number 26) [3]: 0.3963 µM

O=[N+]([O-])c1ccc(Oc2ccc(N=C=S)cc2)cc1 [NCGC00182049-02]
Basal_Viability ATP SW480 IC50/EC50 (SW480; assay number 24, basal): 1.634 µM
Basal_Viability ATP DLD-1 IC50/EC50 (DLD-1; assay number 23, basal): 2.102 µM
Basal_Viability ATP HCT116 IC50/EC50 (HCT116; assay number 25, basal): 2.772 µM
Basal_Viability ATP SNU-C1 IC50/EC50 (SNU-C1; assay number 30, basal): 4.3298 µM
Basal_Viability ATP Colo 320 IC50/EC50 (Colo320; assay number 27, basal): 1.465 µM
Basal_Viability ATP RKO IC50/EC50 (RKO; assay number 29, basal): 2.341 µM
Hela CellCycMod PI 2N IC50/EC50 (HeLa cells; assay number 14, 2N): > 10 µM
Hela CellCycMod PI S Phase IC50/EC50 (HeLa cells; assay number 15, S phase): > 10 µM
Hela CellCycMod PI 4N IC50/EC50 (HeLa cells; assay number 16, 4N): > 10 µM
Hela CellCycMod PI MI IC50/EC50 (HeLa cells; assay number 17, MI): > 10 µM
Hela CellCycMod PI Cell Number IC50/EC50 (HeLa cells; assay number 18, cell number): > 10 µM
Basal_Viability ATP HT-29 IC50/EC50 (HT-29; assay number 28, basal): 1.0654 µM
VEGF_ADSC\ECFC Angio CD31 TubeArea IC50/EC50 [1]: 3.7244 µM
VEGF_ADSC\ECFC Angio Hoechst NucArea IC50/EC50 [2]: > 10 µM
GSK3b inh pretreated_Viability ATP HCT116 IC50/EC50 [3, 4]: 1.472 µM

Cl.O[C@@H](CNC[C@H](O)[C@H]1CCc2cc(F)ccc2O1)[C@@H]1CCc2cc(F)ccc2O1 [NCGC00263579-01]
Basal_Viability ATP SW480 IC50/EC50 (SW480; assay number 24): 3.6015 µM
Basal_Viability ATP DLD-1 IC50/EC50 (DLD-1; assay number 23): 15.2632 µM
Basal_Viability ATP HCT116 IC50/EC50 (HCT116; assay number 25, basal): 6.4812 µM
Basal_Viability ATP SNU-C1 IC50/EC50 (SNU-C1; assay number 30): 5.0932 µM
Basal_Viability ATP Colo 320 IC50/EC50 (Colo320; assay number 27): > 20 µM
Basal_Viability ATP RKO IC50/EC50 (RKO; assay number 29): 3.2799 µM
Hela CellCycMod PI 2N IC50/EC50 (HeLa cells; assay number 14, 2N): > 10 µM
Hela CellCycMod PI S Phase IC50/EC50 (HeLa cells; assay number 15, S phase): > 10 µM
Hela CellCycMod PI 4N IC50/EC50 (HeLa cells; assay number 16, 4N): > 10 µM
Hela CellCycMod PI MI IC50/EC50 (HeLa cells; assay number 17, MI): > 10 µM
Hela CellCycMod PI Cell Number IC50/EC50 (HeLa cells; assay number 18, cell number): 5.565 µM
Basal_Viability ATP HT-29 IC50/EC50 (HT-29; assay number 28): 4.5046 µM
VEGF_ADSC\ECFC Angio CD31 TubeArea IC50/EC50 [1]: > 10 µM
VEGF_ADSC\ECFC Angio Hoechst NucArea IC50/EC50 [2]: > 10 µM
GSK3b inh pretreated_Viability ATP HCT116 IC50/EC50 [3, 4]: 2.3971 µM
